Measured values published in article PMC12013494, “Covalent inhibition of the SARS-CoV-2 NiRAN domain via an active-site cysteine” (The Journal of Biological Chemistry, 2025).

How the values were obtained:
[1] = target: T1, SARS-CoV-2 nsp12 NiRAN domain (Severe acute respiratory syndrome coronavirus 2, UniProt P0DTD1); assay: biochemical; conditions: for IC50 / IC50 for NiRAN-dependent AMPylation of nsp9: n = 4; for IC50: read-out: IC50 for NiRAN-dependent AMPylation of nsp9
[2] = target: nsp12 (Severe acute respiratory syndrome coronavirus 2, UniProt P0DTD1); assay type: binding, SARS-CoV-2
[3] = target: T1, SARS-CoV-2 nsp12 NiRAN domain; assay type: biochemical
[4] = target: SARS-CoV-2 nsp12 (Severe acute respiratory syndrome coronavirus 2, UniProt P0DTD1); assay type: binding
[5] = target: SARS-CoV-1 nsp12 (Severe acute respiratory syndrome coronavirus, UniProt P0C6X7); assay type: binding
[6] = target: MERS nsp12 (Middle East respiratory syndrome-related coronavirus, UniProt K9N7C7); assay type: binding, MERS-CoV
[7] = target: human SelO (Homo sapiens, UniProt Q9BVL4, U667C); assay type: binding
[8] = target: nsp12 RdRp (Severe acute respiratory syndrome coronavirus 2, UniProt P0DTD1); assay type: biochemical, SARS-CoV-2
[9] = target: T2, Flag-nsp12 (Severe acute respiratory syndrome coronavirus 2, UniProt P0DTD1); assay type: cell-based, SARS-CoV-2
[10] = system: SARS-CoV-2-Wu-1-zsGreen; assay: microbe, parasite or virus in culture; assay type: cell-based; conditions: for EC50: Severe acute respiratory syndrome coronavirus 2, read-out: EC50 for viral replication (infectivity)
[11] = target: T2, Flag-nsp12; assay type: cell-based, SARS-CoV-2; remark: listed apart in the source
[12] = system: SARS-CoV-2; conditions: cited from earlier work
[13] = target: SARS-CoV-2 main protease; conditions: cited from earlier work
[14] = system: NiRAN; conditions: cited from earlier work

human SelO, sequence (Q9BVL4 with tags, fused parts or gaps U667C limits assumed): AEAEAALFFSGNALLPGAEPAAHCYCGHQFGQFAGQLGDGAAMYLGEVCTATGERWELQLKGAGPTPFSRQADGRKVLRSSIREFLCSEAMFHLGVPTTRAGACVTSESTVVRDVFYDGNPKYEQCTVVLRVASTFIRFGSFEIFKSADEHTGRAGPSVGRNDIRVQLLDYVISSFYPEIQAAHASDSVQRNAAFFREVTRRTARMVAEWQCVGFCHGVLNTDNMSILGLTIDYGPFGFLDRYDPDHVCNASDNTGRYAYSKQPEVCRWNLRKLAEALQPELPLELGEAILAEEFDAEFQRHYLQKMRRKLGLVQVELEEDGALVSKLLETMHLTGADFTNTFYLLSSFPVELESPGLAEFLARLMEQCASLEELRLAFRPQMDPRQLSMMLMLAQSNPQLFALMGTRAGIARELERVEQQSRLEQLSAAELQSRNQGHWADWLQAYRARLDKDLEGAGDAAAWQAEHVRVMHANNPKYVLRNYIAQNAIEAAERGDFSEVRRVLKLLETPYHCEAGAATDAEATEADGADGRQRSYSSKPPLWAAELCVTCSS
MERS nsp12, sequence (K9N7C7 4378-5310 limits assumed): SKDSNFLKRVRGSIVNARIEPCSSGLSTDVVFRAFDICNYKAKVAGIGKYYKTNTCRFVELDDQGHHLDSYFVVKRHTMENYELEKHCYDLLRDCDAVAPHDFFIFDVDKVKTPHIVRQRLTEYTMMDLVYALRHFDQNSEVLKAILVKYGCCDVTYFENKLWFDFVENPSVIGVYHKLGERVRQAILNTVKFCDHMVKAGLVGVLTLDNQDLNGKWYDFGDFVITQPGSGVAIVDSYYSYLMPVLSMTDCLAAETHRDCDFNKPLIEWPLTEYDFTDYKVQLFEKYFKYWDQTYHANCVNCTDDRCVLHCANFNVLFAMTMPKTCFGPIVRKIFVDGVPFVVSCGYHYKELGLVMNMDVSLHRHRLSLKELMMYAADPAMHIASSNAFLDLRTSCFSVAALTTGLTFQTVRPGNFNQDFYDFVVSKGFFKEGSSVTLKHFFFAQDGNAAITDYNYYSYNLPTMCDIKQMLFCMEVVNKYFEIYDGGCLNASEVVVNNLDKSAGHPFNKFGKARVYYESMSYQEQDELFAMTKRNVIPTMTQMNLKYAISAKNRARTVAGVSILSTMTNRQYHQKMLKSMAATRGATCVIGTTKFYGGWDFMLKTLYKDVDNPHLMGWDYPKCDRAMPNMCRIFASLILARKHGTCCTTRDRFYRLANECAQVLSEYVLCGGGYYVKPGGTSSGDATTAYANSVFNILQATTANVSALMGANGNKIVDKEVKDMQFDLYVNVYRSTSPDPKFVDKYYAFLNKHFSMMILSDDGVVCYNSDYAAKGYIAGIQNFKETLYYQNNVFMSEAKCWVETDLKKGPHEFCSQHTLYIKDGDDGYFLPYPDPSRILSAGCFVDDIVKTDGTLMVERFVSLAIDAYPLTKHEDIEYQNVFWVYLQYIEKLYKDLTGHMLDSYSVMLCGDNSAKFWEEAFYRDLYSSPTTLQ

O=c1cc(CCl)nc2ccc(Cl)cn12 [NCI-1]
IC50 [1]: 7.32 µM | effect on thermal stability of nsp12 [2]: increase in the thermal stability of nsp12 | inhibition of NiRAN-dependent RNAylation of nsp9 [3]: inhibition of NiRAN-dependent RNAylation of nsp9 | covalent binding to nsp12 (intact mass shift) [4]: covalent addition

COC(=O)c1cnn2c(O)cc(CCl)nc12 [NCI-2, methyl 5-(chloromethyl)-7-hydroxypyrazolo[1,5-a]pyrimidine-3-carboxylate]
Ki [1]: 16.3 µM | IC50 [1]: 4.36 µM | kinact ([1]; read-out: rate of inactivation constant kinact): 0.0024 s⁻¹ | kinact/KI ([1]; read-out: second order rate constant kinact/Ki): 147 M⁻¹ s⁻¹ | effect on thermal stability of nsp12 [2]: increase in the thermal stability of nsp12 | inhibition of NiRAN-dependent RNAylation of nsp9 [3]: inhibition of NiRAN-dependent RNAylation of nsp9 | covalent binding to nsp12 (intact mass shift) [4]: covalent addition | covalent binding to SARS-CoV-1 nsp12 [5]: covalently binds | binding to MERS NiRAN (nsp12) [6]: fails to bind | binding to SelO [7]: fails to bind | effect on nsp12 polymerase (RdRp) activity [8]: did not impact nsp12 polymerase activity | RNAylation activity of Flag-nsp12 from treated cells [9]: marked reduction in its ability to RNAylate nsp9 | concentration at which inhibition of viral replication was observed [10]: 200 µM | EC50 [10]: > 200 µM

C#CCOC(=O)c1cnn2c(O)cc(CCl)nc12 [NCI-3, Prop-2-yn-1-yl 5-(chloromethyl)-7-hydroxypyrazolo[1,5-a]pyrimidine-3-carboxylate]
IC50 [1]: 10.4 µM | binding to nsp12 in cells (biotinylation after click reaction) [11]: major biotinylated species corresponding to nsp12

C#CCNc1cc(CCl)nc2c(C(=O)OC)cnn12 [SW395929-1, Methyl 5-(chloromethyl)-7-(prop-2-yn-1-ylamino)pyrazolo[1,5-a]pyrimidine-3-carboxylate]
IC50 for NiRAN-dependent AMPylation of nsp9 [1]: No activity up to 500 μM

O=C(O)c1cnn2c(O)cc(CCl)nc12 [SW396061-1, 5-(Chloromethyl)-7-hydroxypyrazolo[1,5-a]pyrimidine-3-carboxylic acid]
IC50 for NiRAN-dependent AMPylation of nsp9 [1]: No activity up to 500 μM

C#CCNC(=O)c1cnn2c(O)cc(CCl)nc12 [SW396062-1, 5-(Chloromethyl)-7-hydroxy-N-(prop-2-yn-1-yl)pyrazolo[1,5-a]pyrimidine-3-carboxamide]
IC50 [1]: > 500 µM

COC(=O)c1cnn2c(O)cc(CO)nc12 [SW396063-1, Methyl 7-hydroxy-5-(hydroxymethyl)pyrazolo[1,5-a]pyrimidine-3-carboxylate]
IC50 [1]: 371 µM

COC(=O)c1cnn2c(O)cc(C=O)nc12 [SW396064-1, Methyl 5-formyl-7-hydroxypyrazolo[1,5-a]pyrimidine-3-carboxylate]
IC50 for NiRAN-dependent AMPylation of nsp9 [1]: No activity up to 500 μM

COC(=O)c1cnn2c(O)cc(/C=C/C(=O)OC(C)(C)C)nc12 [SW396065-1, Methyl (E)-5-(3-(tert-butoxy)-3-oxoprop-1-en-1-yl)-7-hydroxypyrazolo[1,5-a]pyrimidine-3-carboxylate]
IC50 for NiRAN-dependent AMPylation of nsp9 [1]: No activity up to 500 μM

COC(=O)c1cnn2c(O)cc(/C=C/C(=O)O)nc12 [SW396066-1, (E)-3-(7-hydroxy-3-(methoxycarbonyl)pyrazolo[1,5-a]pyrimidin-5-yl)acrylic acid]
IC50 for NiRAN-dependent AMPylation of nsp9 [1]: No activity up to 500 μM

COC(=O)c1cnn2c(O)cc(/C=C/C(N)=O)nc12 [SW396067-1, Methyl (E)-5-(3-amino-3-oxoprop-1-en-1-yl)-7-hydroxypyrazolo[1,5-a]pyrimidine-3-carboxylate]
IC50 for NiRAN-dependent AMPylation of nsp9 [1]: No activity up to 500 μM

COC(=O)c1cn(C)n2c(=O)cc(CCl)nc12 [SW396262-1, Methyl 5-(chloromethyl)-1-methyl-7-oxo-1,7-dihydropyrazolo[1,5-a]pyrimidine-3-carboxylate]
IC50 [1]: > 500 µM

COC(=O)c1cnn2c(OC)cc(CCl)nc12 [SW396271-1, Methyl 5-(chloromethyl)-7-methoxypyrazolo[1,5-a]pyrimidine-3-carboxylate]
IC50 [1]: > 500 µM

COC(=O)c1cnn2c(O)cc(C(C)Cl)nc12 (stereo not shown) [SW396272-1, Methyl 5-(1-chloroethyl)-7-hydroxypyrazolo[1,5-a]pyrimidine-3-carboxylate]
IC50 for NiRAN-dependent AMPylation of nsp9 [1]: No activity up to 500 μM

COC(=O)c1cnn2c(O)cc(C#N)nc12 [SW396744-1, Methyl 5-cyano-7-hydroxypyrazolo[1,5-a]pyrimidine-3-carboxylate]
IC50 for NiRAN-dependent AMPylation of nsp9 [1]: No activity up to 500 μM

COC(=O)c1cnn2c(O)cc(CCCl)nc12 [SW398309-1, Methyl 5-(2-chloroethyl)-7-hydroxypyrazolo[1,5-a]pyrimidine-3-carboxylate]
IC50 for NiRAN-dependent AMPylation of nsp9 [1]: No activity up to 500 μM

COC(=O)c1cnn2c(O)cc(CCO)nc12 [SW398310-1, Methyl 7-hydroxy-5-(2-hydroxyethyl)pyrazolo[1,5-a]pyrimidine-3-carboxylate]
IC50 for NiRAN-dependent AMPylation of nsp9 [1]: No activity up to 500 μM

C#Cc1cc(O)n2ncc(C(=O)OC)c2n1 [SW461447-1, Methyl 5-ethynyl-7-hydroxypyrazolo[1,5-a]pyrimidine-3-carboxylate]
IC50 for NiRAN-dependent AMPylation of nsp9 [1]: No activity up to 500 μM

COC(=O)c1cnn2c(O)cc(Cl)nc12 [SW461448-1]
IC50 for NiRAN-dependent AMPylation of nsp9 [1]: No activity up to 500 μM

CC(C)(C)[C@H](NC(=O)C(F)(F)F)C(=O)N1C[C@H]2[C@@H]([C@H]1C(=O)N[C@H](C#N)C[C@@H]1CCNC1=O)C2(C)C [nirmatrelvir]
EC50 [12]: 0.075 µM | Ki [13]: 0.003 µM

CCC(CC)COC(=O)[C@H](C)N[P@](=O)(OC[C@H]1O[C@@](C#N)(c2ccc3c(N)ncnn23)[C@H](O)[C@@H]1O)Oc1ccccc1 [remdesivir, reference compound]
EC50 [10]: 0.64 µM | inhibition of NiRAN activity [14]: inhibit NiRAN activity
